Series [1] is described as follows: Decomposition rate under partial discharge in the presence of oxygen. The format is physicochemical. The conditions noted are these: gas mixture with O2 and CO2 (4 vol.-% 2-C4HF7, 4 vol.-% O2, 92 vol.-% CO2); needle-plane electrodes, positive DC 0-35 kV. How it is done:
The decomposition rate of 2-C4HF7 in a gas mixture containing carbon dioxide and oxygen were tested. Specifically, a gas mixture containing 4 vol.-% 2-C4HF7, 4 vol.-% O2 and 92 vol.-% CO2 was subjected to partial discharge tests and the resulting decomposition was determined.
Specifically, an experimental setup consisting of a standard GIS-vessel (volume: 55 L) with a needle-plane electrode arrangement was used. A total of ten steel needles (R_100 μm) were connected to a high voltage DC power supply (positive, 0-35 kV). The gap spacing was set to 10 mm. The vessel was equipped with a fan keeping the gas mixture homogeneous during the experiments.

A short description of series [2]: Dielectric withstand test (breakdown voltage, step DC, uniform field). Type of series: physicochemical. How it is done:
In addition to these tests, the dielectric strength of a mixture containing a monohydrofluoroolefin according to various embodiments, specifically 2-C4HF7, and having a dew point of −5° C. and −30° C., respectively, was determined and compared to the respective dielectric strength of the perfluoroketone decafluoro-3-methylbutan-2-one (“C5”).
Specifically, dielectric withstand tests were performed under DC (step DC, rise-time 300 ns, maximum application time 30 s) in a small vessel (6 L) and custom-built for dielectric testing. Large electrodes (12 cm diameter) with a Rogowski-profile and separated by a small (1.0 cm) distance were used to obtain a uniform field. Prior to the test, the electrodes were sandblasted to create a uniform surface roughness profile (Rt=40 μm).
A large amount of measurements (typically, more than 100) of measurements were performed; the peak voltage level used for each voltage application was randomly selected in the region close to U50, the voltage level for which a 50% breakdown probability is expected. The outcome (breakdown or hold) of each measurement is extracted from the time-dependence of the voltage across the test object. A probit regression is then used to fit the results to a probability distribution and to extract U50 and s, the width of the breakdown probability distribution, from the measurement data.

Take `FC(=C(F)C(F)(F)F)C(F)(F)F` [2-C4F8, octafluorobutene]: the “decomposition rate under partial discharge” value in series [1] is 7 mmol/C. Besides, the breakdown voltage in series [2] (negative direct current, mixture, partial pressure 228 mbar at 20° C.) was 17.5 kV/mm; in series [2] (positive direct current, mixture, partial pressure 228 mbar at 20° C.), 17.7 kV/mm.
On to `O=C(C(F)(F)F)C(F)(C(F)(F)F)C(F)(F)F` [C5, 1,1,1,3,4,4,4-heptafluoro-3-(trifluoromethyl)-butan-2-one], for which the breakdown voltage is 19.2 kV/mm in series [2] (negative direct current, mixture with O2 and CO2, dew point -5° C.); 16.5 kV/mm in series [2] (negative direct current, mixture with O2 and CO2, dew point -30° C.); 19.7 kV/mm in series [2] (positive direct current, mixture with O2 and CO2, dew point -5° C.); 16.9 kV/mm in series [2] (positive direct current, mixture with O2 and CO2, dew point -30° C.).

Source of the values: US11978600B2, “Dielectric-insulation or arc-extinction fluid” (HITACHI ENERGY LTD, priority 2019, dated 2024).
